Calls of active or inactive are those of the source. The calls are words filed in the database; no cut-off is given here.
Assays:
[1] = Antioxidant activity against ABTS radicals assessed as trolox equivalents in phosphate buffer of pH 7.4 at 6.08 uM by ABTS assay; type: functional
MRC5 [2] = experiment: Cytotoxicity against human MRC5 cells assessed as plasma membrane damage at 60 uM after 7 days by LDH assay; type: cell-based; details: mrc5, 168 h
HEK293 [3] = experiment: Cytotoxicity against HEK293 cells assessed as cell death at 60 uM after 7 days by LDH assay; type: cell-based; details: human, hek293, 168 h
Caco-2 [4] = experiment: Cytotoxicity against human Caco-2 cells assessed as cell death at 60 uM after 7 days by LDH assay; type: cell-based; details: caco-2, 168 h
SH-SY5Y [5] = experiment: Cytotoxicity against human SH-SY5Y cells assessed as cell death at 60 uM after 7 days by LDH assay; type: cell-based; details: 168 h
Caco-2 [6] = experiment: Cytotoxicity against human Caco-2 cells assessed as plasma membrane damage at 60 uM after 7 days by LDH assay; type: cell-based; details: caco-2, 168 h
MRC5 [7] = experiment: Cytotoxicity against human MRC5 cells assessed as cell death at 60 uM after 7 days by LDH assay; type: cell-based; details: mrc5, 168 h
[8] = Cytotoxicity against human MG63 cells assessed as cell death at 60 uM after 7 days by LDH assay; type: cell-based; details: mg-63, 168 h
HEK293 [9] = experiment: Cytotoxicity against HEK293 cells assessed as plasma membrane damage at 60 uM after 7 days by LDH assay; type: cell-based; details: human, hek293, 168 h
[10] = Cytotoxicity against human MG63 cells assessed as plasma membrane damage at 60 uM after 7 days by LDH assay; type: cell-based; details: mg-63, 168 h
SH-SY5Y [11] = experiment: Cytotoxicity against human SH-SY5Y cells assessed as plasma membrane damage at 60 uM after 7 days by LDH assay; type: cell-based; details: 168 h
MRC5 [12] = experiment: Cytotoxicity against human MRC5 cells assessed as decrease in proliferation up to 200 uM after 7 days by alamar blue assay; type: cell-based; details: mrc5, 168 h
SH-SY5Y [13] = experiment: Cytotoxicity against human SH-SY5Y cells assessed as decrease in proliferation up to 200 uM after 7 days by alamar blue assay; type: cell-based; details: 168 h
Caco-2 [14] = experiment: Cytotoxicity against human Caco-2 cells assessed as decrease in proliferation up to 200 uM after 7 days by alamar blue assay; type: cell-based; details: caco-2, 168 h
[15] = (§1) Antioxidant activity against ROS-production in human neutrophils by chemiluminescence; type: functional, cell-based; details: Neutrophil
Neutrophil = experiment: as §1; type: functional, cell-based
HEK293 [16] = experiment: Cytotoxicity against HEK293 cells assessed as decrease in proliferation up to 200 uM after 7 days by alamar blue assay; type: cell-based; details: human, hek293, 168 h
THP-1 = experiment: Antioxidant activity against ROS-production in PMA-stimulated human THP1 cells by chemiluminescence; type: cell-based
[17] = Cytotoxicity against human MG63 cells assessed as decrease in proliferation up to 200 uM after 7 days by alamar blue assay; type: cell-based; details: mg-63, 168 h

Row | Compound | Activity [1] | Activity (MRC5 [2]) | Activity (HEK293 [3]) | Activity (Caco-2 [4]) | Activity (SH-SY5Y [5]) | Activity (Caco-2 [6]) | Activity (MRC5 [7]) | Activity [8] | Activity (HEK293 [9]) | Activity [10] | Activity (SH-SY5Y [11]) | Activity (MRC5 [12]) | Activity (SH-SY5Y [13]) | Activity (Caco-2 [14]) | IC50 [15] [nM] | Activity (Neutrophil) | Activity (HEK293 [16]) | Activity (THP-1) | Activity [17]
1 | O=C1O[C@H]([C@@H](O)CO)C([O-])=C1O.[Na+] | Active | – | – | – | – | – | – | – | – | – | – | – | – | – | – | – | – | – | –
2 | CC(=O)N[C@@H](CS)C(=O)O | 2.4 | – | – | – | – | – | – | – | – | – | – | – | – | – | – | – | – | – | –
3 | Cc1c(C)c2c(c(C)c1O)CCC(C)(C(=O)O)O2 (stereo unspecified) [TROLOX] | – | Non-toxic | Non-toxic | Non-toxic | Non-toxic | Non-toxic | Non-toxic | Non-toxic | Non-toxic | Non-toxic | Non-toxic | – | – | – | – | – | – | – | –
4 | CC1Cc2cc(O)ccc2[Se]1 (stereo unspecified) | Active | Non-toxic | Non-toxic | Non-toxic | Non-toxic | Non-toxic | Non-toxic | Non-toxic | Non-toxic | Non-toxic | Non-toxic | Non-toxic | Non-toxic | Non-toxic | 1000 | Dose-dependent effect | Non-toxic | Dose-dependent effect | Non-toxic

From ChEMBL document CHEMBL1157597, “Exploring a synthetic organoselenium compound for antioxidant pharmacotherapy--toxicity and effects on ROS-production” (Bioorg Med Chem, 2010)
